Results from patent publication US20240117431A1, “STEM-CELL BASED BIOMARKER DISCOVERY” (THE REGENTS OF THE UNIVERSITY OF CALIFORNIA, priority 2020, published 2024).

Molecular target: T1, Methionine-tRNA Synthetase L272G (MethL272G) iPSCs (Homo sapiens, UniProt P56192, L272G)
T1 construct: Using CRISPR gene editing, this locus was successfully modified in a human iPSC line; endogenous in cells; host or cells: human iPSC line ADRC 76, CRISPR-edited
T1 sequence (P56192 1-900 L272G): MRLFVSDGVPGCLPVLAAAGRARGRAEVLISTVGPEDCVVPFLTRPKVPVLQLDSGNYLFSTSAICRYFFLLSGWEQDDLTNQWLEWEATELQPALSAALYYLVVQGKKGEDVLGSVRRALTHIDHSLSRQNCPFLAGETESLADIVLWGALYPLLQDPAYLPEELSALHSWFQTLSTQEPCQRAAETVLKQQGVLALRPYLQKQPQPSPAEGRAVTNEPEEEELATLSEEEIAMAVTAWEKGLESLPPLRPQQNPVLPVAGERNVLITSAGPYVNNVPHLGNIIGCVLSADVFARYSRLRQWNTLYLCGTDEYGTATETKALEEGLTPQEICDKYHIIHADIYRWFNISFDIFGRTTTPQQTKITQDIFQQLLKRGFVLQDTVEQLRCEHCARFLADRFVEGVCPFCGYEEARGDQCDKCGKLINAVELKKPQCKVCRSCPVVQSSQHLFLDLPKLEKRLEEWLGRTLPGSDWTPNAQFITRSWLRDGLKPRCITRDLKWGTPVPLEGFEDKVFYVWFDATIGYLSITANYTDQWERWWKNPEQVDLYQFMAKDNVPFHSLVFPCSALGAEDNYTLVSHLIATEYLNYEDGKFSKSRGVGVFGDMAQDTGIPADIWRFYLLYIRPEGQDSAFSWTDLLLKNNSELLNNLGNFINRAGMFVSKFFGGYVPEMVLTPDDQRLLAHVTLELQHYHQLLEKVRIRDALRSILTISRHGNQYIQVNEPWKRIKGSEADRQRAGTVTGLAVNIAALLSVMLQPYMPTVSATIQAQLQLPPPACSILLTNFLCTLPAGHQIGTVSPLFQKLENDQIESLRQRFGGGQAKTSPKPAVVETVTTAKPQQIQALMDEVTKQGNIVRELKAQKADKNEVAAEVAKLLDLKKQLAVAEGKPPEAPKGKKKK
Assay: ANL incorporation into nascent protein of iPSCs (BONCAT western blot, TAMRA confocal microscopy)
Format: cell-based
Details: 1.5 mM ANL, 14 hrs
Procedure: Validation by Western Blot: Wild-type (WT) and MethL272G iPSCs were cultured in 6-well plate with and without 1.5 mM ANL (Tocris 6585) for 14 hrs in DMEM/F12 Silac media without Methionine (AthenaES 0433) supplemented with TeSR™-E8™ 25× Supplement. (Note: Methionine-absent media is described as Metia below.) Cells were dissociated and collected using TrypLE Express (Gibco 12605028) for 3 min at 37° C., isolated, and lysed in Ripa buffer with Halt Protease Inhibitor Cocktail (ThermoFisher Scientific 78429) and Halt Phosphatase Inhibitor Cocktail (ThermoFisher Scientific 78426). 200 μg of protein was labeled for analysis using Click-iT Protein Analysis TAMRA alkyne Detection Kit (Invitrogen C33370) that tags the azide of ANL incorporated protein with a TAMRA-alkyne tag via the following reaction:
The resulting protein pellets were boiled in 120 μl of Loading Buffer and boiled for 15 minutes at 70° C., which were then loaded into a 4-15% Criterion TGX 12-well Gel (Bio-Rad 5671083) for electrophoresis, then transferred to Trans-Blot® Turbo™ Midi Nitrocellulose Membrane (Bio-Rad 1704159) for analysis. Protein was probed with TAMRA Monoclonal Antibody (5G5) (Invitrogen MA1-041) followed by anti-mouse secondary for imaging. […]

## [N-]=[N+]=NCCCC[C@H](N)C(=O)O [ANL, L-azidonorleucine]
Control ADRC76 versus MethL272G iPSCs, FIG. 2A
  labeling of cellular protein (TAMRA confocal microscopy): labeling of cellular protein only in mutated MethL272G iPSCs
methionine-absent media, FIG. 1B
  BONCAT labeling of ANL-incorporated protein (western blot): successful BONCAT labeling
